How the values were obtained:
[1] = tested on: B16 tumor; assay: Intratumoral injection into established B16 melanoma, tumor size; format: in vivo, C57BL/6 mice
Experimental: Mice bearing a 7-d subcutaneous B16 melanoma were injected with […] of LL-37 once (single), or repeatedly for 3 days (3×). Control injections were done with PBS. Tumor size was monitored by caliper every second day. Data represent mean of 4 mice per group.
Intratumoral injection of LL-37 elicits potent anti-tumor activity. 3×10^5 B16 tumor cells were inoculated into shaved flanks of C57BL/6 mice. Tumors were allowed to grow for 7 days. On day 7, tumors were either injected with a single dose of LL-37 (100 μg), injected daily for 3 consecutive days with LL-37 or injected with saline as a control. Tumor size was monitored with a caliper and volumes estimated using the formula π/6×length×width^2. The experiment was stopped 12 days after injection because all mice in the control group had died or their tumor had reached 20 mm in their maximal diameter. […] Thus, intratumoral LL-37 injection induces potent anti-tumor activity.

[2] = tested on: plasmacytoid dendritic cells (pDC); assay: IFN-α and cytokine production by purified human pDC (ELISA of supernatants); format: cell-based
[3] = tested on: myeloid (monocyte-derived) DC; assay: Myeloid DC maturation (CD80) and cytokine secretion; format: cell-based, human; conditions: RNA 10 μg ml^−1 premixed with LL-37 (10 μM), overnight culture
Experimental: (§1) Myeloid (monocyte-derived) DC were stimulated with RNA isolated from U937 cells (human RNA) or a synthetic single-stranded RNA sequence derived from HIV (ssRNA40) and a known TL-7/8 ligand either alone (10 pg ml^−1) or after premixing with LL-37 (10 μM). (a) Maturation was assessed by flow cytometry analysis of CD80 after overnight culture.
as §1, with “In a second set of experiments, myeloid” for “Myeloid”, “TLR-7/8” for “TL-7/8”, “μg” for “pg”, “μM).” for “μM). (a)”, “culture (FIG. 21A). Levels of TNF-α, IL-6, EL-12, and IL-23 were measured after overnight culture (FIG. 21B).” for “culture.”

[4] = tested on: plasmacytoid dendritic cells (pDC); assay: IFN-α and cytokine production by purified human pDC (ELISA of supernatants); format: cell-based; remark: listed apart in the source
From the text: PDC from healthy donors were purified from freshly collected buffy coats. Briefly, PBMC were isolated by Ficoll-Hypaque density gradient centrifugation (GE Healthcare, Piscatway, N.J.) followed by positive sorting using anti-BDCA4-conjugated magnetic microbeads (Miltenyi Biotec, Auburn, Calif.). The recovered cells were stained with PE-Cy5-conjugated anti-CD4, APC-conjugated CD11c, and a cocktail of FITC-conjugated anti-CD3, anti-CD14, anti-CD16, anti-CD15, anti-CD20 and anti-CD56 (Lineage-FITC) (BD Pharmingen, San Diego, Calif.). The CD4+CD11c-Lin- (pDC precursors) were isolated by cell sorting. Purity was routinely >99%. PDC (5-10×10^4/well) were cultured in 96-well round-bottom plates in RPMI 1640 (GIBCO, Carlsbad, Calif.) supplemented with 10% FCS (Atlanta Biologicals, Lawrenceville, Ga.). Where indicated, pDC were stimulated with CpGA (1 μM), CpGB (1 μM), R837 (10 ug/ml), IRS (4 uM), non-CpG sequence (4 uM), and different concentrations of LL-37 and of human genomic DNA. To prepare LL-37.DNA complexes, CpGB, huDNA, non-CpG and LL-37 were mixed by inversion and incubated for 30 min at room temperature before being added to the cells.
Supernatants samples were taken after 18-24 h after addition of the stimuli. Human IFN-α was measured using a human IFN-α ELISA kit (PBL Biomedical Laboratories, New Brunswick, N.J.) according to the company's instructions. IL-6 and TNF-α were detected using a kit for human IL6 and TNF-α (R&D Systems), respectively.

[5] = tested on: human genomic DNA; assay: Complex formation with DNA (ethidium bromide intercalation, size exclusion HPLC); format: binding
From the text: (A) Emission spectra of human genomic DNA intercalated with Ethimidium bromide in the presence of increasing doses of LL-37. (B) Size exclusion HPLC of LL-37 alone, mut-LL-37 alone or DNA premixed with LL-37 or mut-37. […] Absorbance scales are different to accommodate the DNA peak.

LLGDFFRKSKEKIGKEFKRIVQRIKDFLRNLVPRTES [LL-37]
Growth of established B16 tumor, single intratumoral injection ([1]; 100 μg on day 7): significantly delayed the growth of established B16 tumor
Anti-tumor response, repeated intratumoral injection ([1]; three consecutive days): showed a trend towards a better anti-tumor response
Clump formation of pDC [2]: induced pDC to form clumps
Maturation of pDC ([2]; not shown): did not induce maturation of pDC
Myeloid DC maturation and cytokine secretion [3]: converts self-RNA and viral RNA into activator of myeloid DC maturation and cytokine secretion
IFN-α in pDC stimulated with non-CpG-ODN sequences plus LL-37 [4]: induce significant levels of IFN-α
IFN-α production by pDC stimulated with nucleic acid alone or combined with LL-37, as labelled [4]: converts genomic DNA of human and bacterial origin into potent IFN-α inducers
IL-6 production by pDC ([4]; LL-37 10 μM): only induced IFN-α but not IL-6 or TNF-α
TNF-α production by pDC ([4]; LL-37 10 μM): only induced IFN-α but not IL-6 or TNF-α
IFN-α by pDC relative to phosphothiorate CpG-B alone ([4]; LL-37 added to phosphodiesteric or phosphothiorate CpG-B): approximately 10 fold
IFN-α produced by pDC (mean) ([4]; pDC cultured with LL-37, 10% serum in culture medium, n=10): 950 pg/ml
IFN-α produced by pDC (range) ([4]; pDC cultured with LL-37, n=10): 200-4000 pg/ml
Complex formation with DNA [5]: complexed with DNA
